Measured values from patent US20240300936A1 (priority 2021, published 2024).
Where a name gives a salt, the structure may show the parent alone.

The compounds below were run on HELA cells (assay: HELA cell proliferation assay (CellTitre-Glo, 6 days)). Conditions: Homo sapiens, 144 h; HELA cells, 6 days treatment, CellTitre-Glo; read-out: HeLa pIC50 (converted).
Format: cell-based

| SMILES | IC50 [M] |
| --- | --- |
| Nc1nc(NCc2ccn(C(F)F)n2)nc(-c2ccc3cncn3c2)n1 [Example 74, N2-[[1-(difluoromethyl)pyrazol-3-yl]methyl]-6-imidazo[1,5-a]pyridin-6-yl-1,3,5-tria zine-2,4-diaminediamine] | 4.9e-07 |
| Cn1ncc2ccc(-c3nc(N)nc(NC(C)(C)c4nn(C(F)F)cc4Cl)n3)cc21 [Example 97, N4-[1-[4-chloro-1-(difluoromethyl)pyrazol-3-yl]-1-methyl-ethyl]-6-(1-methylindazol-6-yl)-1,3,5-triazine-2,4-diamine] | 7.94e-07 |
| Nc1nc(NCc2c(Cl)ccc(F)c2F)nc(-c2ccc3cn[nH]c3c2)n1 [Example 51, N2-[(6-chloro-2,3-difluoro-phenyl)methyl]-6-(1H-indazol-6-yl)-1,3,5-triazine-2,4-di amine] | 1.48e-06 |
| Cc1ncc2ccc(-c3nc(N)nc(NC(C)(C)c4ccn(C(F)F)n4)n3)cn12 [Example 37, N4-[1-[1-(difluoromethyl)pyrazol-3-yl]-1-methyl-ethyl]-6-(3-methylimidazo[1,5-a]pyridin-6-yl)-1,3,5-triazine-2,4-diamine] | 3.55e-07 |
| CN(c1nc(N)nc(-c2ccc3cncn3c2)n1)C(C)(C)c1ccn(C(F)F)n1 [Example 34, N4-[1-[1-(difluoromethyl)pyrazol-3-yl]-1-methyl-ethyl]-6-imidazo[1,5-a]pyridin-6-yl-N4-methyl-1,3,5-triazine-2,4-diamine] | 7.76e-07 |
| Cn1ncc2ccc(-c3nc(N)nc(NC4(c5ccn(C(F)F)n5)CC4)n3)cc21 [Example 32, N4-[1-[1-(Difluoromethyl)pyrazol-3-yl]cyclopropyl]-6-(1-methylindazol-6-yl)-1,3,5-triazine-2,4-diamine] | 1.29e-06 |
| Cc1ccc(CNc2nc(N)nc(-c3ccc4cn[nH]c4c3)n2)c(F)c1F [Example 88, N2-[(2,3-Difluoro-4-methyl-phenyl)methyl]-6-(1H-indazol-6-yl)-1,3,5-triazine-2,4-diamine] | 1.29e-06 |
| Nc1nc(NC2COc3cccc(F)c32)nc(-c2ccc3cn[nH]c3c2)n1 (stereo not shown) [Example 5, N2-(4-fluoro-2,3-dihydrobenzofuran-3-yl)-6-(1H-indazol-6-yl)-1,3,5-triazine-2,4-diamine] | 3.39e-06 |
| Cc1ncc2ccc(-c3nc(N)nc(NC(C)(C)c4cccc(F)c4F)n3)cn12 [Example 39, N4-[1-(2,3-difluorophenyl)-1-methyl-ethyl]-6-(3-methylimidazo[1,5-a]pyridin-6-yl)-1,3,5-triazine-2,4-diamine] | 4.17e-07 |
| CC(C)(Nc1nc(N)nc(-c2ccc3cncn3c2)n1)c1ccn(C(F)F)n1 [Example 36, N4-[1-[1-(difluoromethyl)pyrazol-3-yl]-1-methyl-ethyl]-6-imidazo[1,5-a]pyridin-6-yl-1,3,5-triazine-2,4-diamine] | 4.47e-08 |
| Nc1nc(NC2(c3cccc(F)c3F)CC2)nc(-c2ccc3cn[nH]c3c2)n1 [Example 23, N2-[1-(2,3-Difluorophenyl)cyclopropyl]-6-(1H-indazol-6-yl)-1,3,5-triazine-2,4-diamine] | 2.24e-07 |
| COc1cccc(CNc2nc(N)nc(-c3ccc4cn[nH]c4c3)n2)c1F [Example 85, N2-[(2-Fluoro-3-methoxy-phenyl)methyl]-6-(1H-indazol-6-yl)-1,3,5-triazine-2,4-diamine] | 1.58e-06 |
| CC(C)(Nc1nc(N)nc(-c2ccc3cn[nH]c3c2F)n1)c1ccn(C(F)F)n1 [Example 102, N2-[1-[1-(difluoromethyl)pyrazol-3-yl]-1-methyl-ethyl]-6-(7-fluoro-1H-indazol-6-yl)-1,3,5-triazine-2,4-diamine] | 2.95e-07 |
| Nc1nc(NCc2cccc(F)c2F)nc(-c2ccc3cn[nH]c3c2)n1 [Example 70, N2-[(2,3-difluorophenyl)methyl]-6-(1H-indazol-6-yl)-1,3,5-triazine-2,4-diamine] | 1.15e-07 |
| CC(C)(Nc1nc(N)nc(-c2ccc3cn[nH]c3c2)n1)c1ccn(C(F)F)n1 [Example 60, N2-[1-[1-(difluoromethyl)pyrazol-3-yl]-1-methyl-ethyl]-6-(1H-indazol-6-yl)-1,3,5-tri azine-2,4-diamine] | 3.47e-08 |
| Nc1nc(NC2(c3c[nH]cn3)CC2)nc(-c2ccc3cn[nH]c3c2)n1 [Example 86, N2-[1-(1H-Imidazol-4-yl)cyclopropyl]-6-(1H-indazol-6-yl)-1,3,5-triazine-2,4-dia mine; 2,2,2-trifluoroacetate] | 1e-05 |

| SMILES | IC50 [M] |
| --- | --- |
| CN(CCc1cccc(Cl)c1Cl)c1nc(N)nc(-c2ccc3cn[nH]c3c2)n1 [Example 43, N4-[2-(2,3-dichlorophenyl)ethyl]-6-(1H-indazol-6-yl)-N4-methyl-1,3,5-triazine-2,4-diamine] | 2.09e-06 |
| Nc1nc(NC2(c3ccn(C(F)F)n3)CC2)nc(-c2ccc3cncn3c2)n1 [Example 35, N4-[1-[1-(Difluoromethyl)pyrazol-3-yl]cyclopropyl]-6-imidazo[1,5-a]pyridin-6-yl-1,3,5-triazine-2,4-diamine] | 1.48e-07 |
| CC(C)(Nc1nc(N)nc(-c2ccc3cncn3c2)n1)c1ccccn1 [Example 72, 6-imidazo[1,5-a]pyridin-6-yl-N2-[1-methyl-1-(2-pyridyl)ethyl]-1,3,5-triazine-2,4-di amine] | 4.07e-07 |
| CC(C)(Nc1nc(N)nc(-c2ccc3cn[nH]c3c2)n1)c1cccc(F)c1F [Example 28, N2-[1-(2,3-difluorophenyl)-1-methyl-ethyl]-6-(1H-indazol-6-yl)-1,3,5-triazine-2,4-di amine] | 1.91e-07 |
| Nc1nc(NC2COc3cc(F)ccc32)nc(-c2ccc3cn[nH]c3c2)n1 (stereo not shown) [Example 89, N2-(6-fluoro-2,3-dihydrobenzofuran-3-yl)-6-(1H-indazol-6-yl)-1,3,5-triazine-2,4-diamine] | 8.51e-07 |
| Nc1nc(NC2(c3ccn(C(F)F)n3)CC2)nc(-c2ccc3cn[nH]c3c2)n1 [Example 22, N2-[1-[1-(Difluoromethyl)pyrazol-3-yl]cyclopropyl]-6-(1H-indazol-6-yl)-1,3,5-triazine-2,4-diamine] | 1.35e-07 |
| Nc1nc(NCc2cccc(F)c2F)nc(-c2ccc3cncn3c2)n1 [Example 30, N4-[(2,3-Difluorophenyl)methyl]-6-imidazo[1,5-a]pyridin-6-yl-1,3,5-triazine-2,4-dia mine] | 1.55e-07 |
| Nc1nc(NCc2cccc(C(F)(F)F)n2)nc(-c2ccc3cn[nH]c3c2)n1 [Example 8, 6-(1H-indazol-6-yl)-N2-[[6-(trifluoromethyl)-2-pyridyl]methyl]-1,3,5-triazine-2,4-diamine] | 9.33e-07 |
| Nc1nc(NC2(c3nn(C(F)F)cc3Cl)CC2)nc(-c2ccc3cn[nH]c3c2)n1 [Example 84, N4-[1-[4-chloro-1-(difluoromethyl)pyrazol-3-yl]cyclopropyl]-6-(1H-indazol-6-yl)-1,3,5-triazine-2,4-diamine] | 6.46e-07 |
| Nc1nc(NCc2cccc(F)c2Cl)nc(-c2ccc3cncn3c2)n1 [Example 73, N2-[(2-chloro-3-fluoro-phenyl)methyl]-6-imidazo[1,5-a]pyridin-6-yl-1,3,5-triazine-2,4-diamine] | 4.27e-07 |
| Nc1nc(NC2COc3cc(F)cc(F)c32)nc(-c2ccc3cn[nH]c3c2)n1 (stereo not shown) [Example 90, N2-(4,6-Difluoro-2,3-dihydrobenzofuran-3-yl)-6-(1H-indazol-6-yl)-1,3,5-triazine-2,4-diamine] | 1.55e-06 |
| Cn1ncc2ccc(-c3nc(N)nc(NC(C)(C)c4ccn(C(F)F)n4)n3)cc21 [Example 101, N2-[1-[1-(difluoromethyl)pyrazol-3-yl]-1-methyl-ethyl]-6-(1-methylindazol-6-yl)-1,3,5-triazine-2,4-diamine] | 2.57e-07 |
| Cc1cccc(CCNc2nc(N)nc(-c3ccc4cn[nH]c4c3)n2)n1 [Example 54, 6-(1H-indazol-6-yl)-N2-[2-(6-methyl-2-pyridyl)ethyl]-1,3,5-triazine-2,4-diamine] | 1.66e-06 |
| Nc1nc(NC2(c3ccn(C(F)F)n3)CCC2)nc(-c2ccc3cn[nH]c3c2)n1 [Example 81, N2-[1-[1-(Difluoromethyl)pyrazol-3-yl]cyclobutyl]-6-(1H-indazol-6-yl)-1,3,5-tria zine-2,4-diamine] | 2.14e-07 |
| Nc1nc(NCc2cccc(F)c2Cl)nc(-c2ccc3cn[nH]c3c2)n1 [Example 24, N2-[(2-chloro-3-fluoro-phenyl)methyl]-6-(1H-indazol-6-yl)-1,3,5-triazine-2,4-dia mine] | 2.88e-07 |
| Cn1ncc2ccc(-c3nc(N)nc(NC4(c5ccn(C(F)F)n5)CCC4)n3)cc21 [Example 82, N4-[1-[1-(Difluoromethyl)pyrazol-3-yl]cyclobutyl]-6-(1-methylindazol-6-yl)-1,3,5-triazine-2,4-diamine] | 2.4e-06 |

Same assay, conditions: Homo sapiens, HeLa, 144 h, read-out: HeLa pIC50 (M) (converted)

| SMILES | IC50 [M] |
| --- | --- |
| Nc1nc(-c2ccc3cn[nH]c3c2)nc(N2CCOCC2Cc2cccc(Cl)c2Cl)n1 (stereo not shown) [Example 3, 4-[3-[(2,3-dichlorophenyl)methyl]morpholin-4-yl]-6-(1H-indazol-6-yl)-1,3,5-triaz in-2-amine hydrochloride] | 2.95e-06 |
| CC(C)(Nc1nc(N)nc(-c2ccc3cn[nH]c3c2)n1)c1ccn(CCN2CCCC2)n1 [Example 83, 6-(1H-Indazol-6-yl)-N2-[1-methyl-1-[1-(2-pyrrolidin-1-ylethyl)pyrazol-3-yl]ethyl]-1,3,5-triazine-2,4-diamine hydrochloride] | 7.08e-07 |
| CC(C)(Nc1nc(N)nc(-c2ccc3cn[nH]c3c2)n1)c1cccc(C(F)(F)F)n1 [Example 4, 6-(1H-indazol-6-yl)-N2-[1-methyl-1-[6-(trifluoromethyl)-2-pyridyl]ethyl]-1,3,5-tr iazine-2,4-diamine hydrochloride] | 1.7e-07 |
| CC(C)(Nc1nc(N)nc(-c2ccc3cn[nH]c3c2)n1)c1ccccn1 [Example 12, 6-(1H-indazol-6-yl)-N2-[1-methyl-1-(2-pyridyl)ethyl]-1,3,5-triazine-2,4-diamine hydrochloride] | 1.74e-07 |
| Nc1nc(NC2(c3cccc(C(F)(F)F)n3)CC2)nc(-c2ccc3cn[nH]c3c2)n1 [Example 1, 6-(1H-indazol-6-yl)-N2-[1-[6-(trifluoromethyl)-2-pyridyl]cyclopropyl]-1,3,5-triazine-2,4-diamine hydrochloride] | 1.07e-06 |
